Assay results from US20090036444A1, “5-5-Membered fused heterocyclic compound and use thereof as HCV polymerase inhibitor” (priority 2003, published 2009).
Counter-ions that a name gives are not always drawn. Like-named read-outs stand apart in the source and are kept apart here.

Columns and labels:
[1] = biological target: T1, HCV polymerase H544 1b 3X (Hepatitis C virus genotype 1b, UniProt P26663); test: Assay of enzyme (HCV polymerase) inhibitory activity, H544 1b 3X; assay type: biochemical, HCV BK strain
T1 construct: a region encoding NS5B (J Virol 1991 March, 65(3), 1105-13, 544 amino acids after deletion of 47 amino acids on the C-terminal); 6 His (C); made in house; host or cells: Escherichia coli
T1 sequence (P26663 2420-2963): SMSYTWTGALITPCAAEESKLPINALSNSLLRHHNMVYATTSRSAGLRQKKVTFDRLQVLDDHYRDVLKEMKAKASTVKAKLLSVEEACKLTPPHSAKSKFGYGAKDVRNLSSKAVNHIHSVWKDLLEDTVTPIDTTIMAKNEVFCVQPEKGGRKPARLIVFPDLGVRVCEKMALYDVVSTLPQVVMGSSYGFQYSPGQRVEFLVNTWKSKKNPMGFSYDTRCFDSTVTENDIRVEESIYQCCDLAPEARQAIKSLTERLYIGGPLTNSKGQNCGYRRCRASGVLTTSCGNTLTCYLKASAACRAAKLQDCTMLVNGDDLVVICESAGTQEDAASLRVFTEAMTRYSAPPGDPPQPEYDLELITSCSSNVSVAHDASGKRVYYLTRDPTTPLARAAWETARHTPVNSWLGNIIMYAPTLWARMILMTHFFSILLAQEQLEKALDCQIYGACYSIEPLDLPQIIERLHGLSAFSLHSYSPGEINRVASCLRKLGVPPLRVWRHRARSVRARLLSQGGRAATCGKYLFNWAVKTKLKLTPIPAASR
Text: The evaluation of the HCV polymerase inhibitory activity of the compound of the present invention is explained in the following. This polymerase is an enzyme coded for by the non-structural protein region called NS5B on the genome RNA of HCV (EMBO J., 15:12-22, 1996).
Using, as a template, a cDNA clone corresponding to the full length genome RNA of HCV BK strain obtained from the blood of a patient with hepatitis C, a region encoding NS5B (J Virol 1991 March, 65(3), 1105-13, 544 amino acids after deletion of 47 amino acids on the C-terminal) was amplified by PCR. The objective gene was prepared by adding a 6 His tag {base pair encoding 6 continuous histidine (His)} to the 3′ end thereof and transformed to Escherichia coli. The Escherichia coli capable of producing the objective protein was cultured. The obtained cells were suspended in a buffer solution and crushed in a microfluidizer. The supernatant was obtained by centrifugation and applied to various column chromatographys {mono-S, Sephacryl S-200 (Pharmacia)}, inclusive of metal chelate chromatography, to give a standard enzyme product.
Using a synthetic primer designed based on the sequence of HCV genomic 3′ untranslated region, a DNA fragment (148 bp) containing polyU and 3′X sequence was entirely synthesized and cloned into plasmid pBluescript SK II (+) (Stratagene). The cDNA encoding full length NS5B, which was prepared in i) above, was digested with restriction enzyme KpnI to give a cDNA fragment containing the nucleotide sequence of from the restriction enzyme cleavage site to the termination codon. This cDNA fragment was inserted into the upstream of 3′ untranslated region of the DNA in pBluescript SK II(+) and ligated. The about 450 bp inserted DNA sequence was used as a template in the preparation of substrate RNA. This plasmid was cleaved immediately after the 3′X sequence, linearized and purified by phenol-chloroform treatment and ethanol precipitation to give DNA.
RNA was synthesized (37° C., 3 hr) by run-off method using this purified DNA as a template, a promoter of pBluescript SK II(+), MEGAscript RNA synthesis kit (Ambion) and T7 RNA polymerase. DNase I was added and the mixture was incubated for 1 hr. The template DNA was removed by decomposition to give a crude RNA product. This crude product was treated with phenol-chloroform and purified by ethanol precipitation to give the objective substrate RNA.
This RNA was applied to formaldehyde denaturation agarose gel electrophoresis to confirm the quality thereof and preserved at −80° C.
A test substance (compound of the present invention) and a reaction mixture (30 μl) having the following composition were reacted at 25° C. for 90 min. 10% Trichloroacetic acid at 4° C. and 1% sodium pyrophosphate solution (150 μl) were added to this reaction mixture to stop the reaction. The reaction mixture was left standing in ice for 15 min to insolubilize RNA. This RNA was trapped on a glass filter (Whatman GF/C and the like) upon filtration by suction. This filter was washed with a solution containing 1% trichloroacetic acid and 0.1% sodium pyrophosphate, washed with 90% ethanol and dried. A liquid scintillation cocktail (Packard) was added and the radioactivity of RNA synthesized by the enzyme reaction was measured on a liquid scintillation counter.
The HCV polymerase inhibitory activity (IC50) of the compound of the present invention was calculated from the values of radioactivity of the enzyme reaction with and without the test substance.
The results are shown in Table 18, wherein each symbol means that IC50 falls within the following range.
Reaction mixture: HCV polymerase (0.5 μg/ml) obtained in i), substrate RNA (5 μg/ml) obtained in ii), ATP (50 μM), GTP (50 μM), CTP (50 μM), UTP (2 μM), [5,6-^3H] UTP (46 Ci/mmol (Amersham), 1 μCi) 20 mM Tris-HCl (pH 7.5), EDTA (1 mM), MgCl2 (5 mM), NaCl (50 mM), DTT (1 mM), BSA (0.01%)

[2] = biological target: T2, HCV polymerase H544 1a 3X (UniProt P27958); test: Assay of enzyme (HCV polymerase) inhibitory activity, H544 1a 3X; assay type: biochemical
T2 construct: fused on or other part: 6 His tag at the C-terminus, for the BK (1b) enzyme

[3] = 25° C., 90 min, [5,6-3H]UTP incorporation, read-out: H544 1a 3X IC50
[4] = read-out: H544 1a 3X IC50, 25° C., 90 min, [5,6-3H]UTP incorporation

Structure (SMILES) | IC50 [1] | IC50 [2, 3] | IC50 [2, 4]
Cn1c(-c2ccc(OCc3ccccc3)cc2)c(C2CCCCC2)c2sc(C(=O)O)cc21 [Example 12, 5-(4-benzyloxyphenyl)-6-cyclohexyl-4-methyl-4H-thieno[3,2-b]pyrrole-2-carboxylic acid] | 0.1 to 1 µM | 0.1 to 1 µM | –
CN(C)C(=O)Cn1c(-c2ccc(OC3CCN(C(=O)OC(C)(C)C)CC3)cc2)c(C2CCCCC2)c2sc(C(=O)O)cc21 [Example 39, 5-[4-(1-tert-butoxycarbonylpiperidin-4-yloxy)phenyl]-6-cyclohexyl-4-dimethylcarbamoylmethyl-4H-thieno[3,2-b]pyrrole-2-carboxylic acid] | < 0.1 µM | 0.1 to 1 µM | –
CC(=O)N(C)c1ccc(N2CCOCC2)c(COc2ccc(-c3c(C4CCCCC4)c4sc(C(=O)O)cc4n3C)cc2)c1 [Example 17, 5-{4-[5-(N-acetyl-N-methylamino)-2-morpholinobenzyloxy]phenyl}-6-cyclohexyl-4-methyl-4H-thieno[3,2-b]pyrrole-2-carboxylic acid hydrochloride] | < 0.1 µM | – | < 0.1 µM
CN(C)C(=O)Cn1c(-c2ccc(OC3CCCN(C(=O)OC(C)(C)C)C3)cc2)c(C2CCCCC2)c2sc(C(=O)O)cc21 (stereo not shown) [Example 37, 5-[4-(1-tert-butoxycarbonylpiperidin-3-yloxy)phenyl]-6-cyclohexyl-4-dimethylcarbamoylmethyl-4H-thieno[3,2-b]pyrrole-2-carboxylic acid] | < 0.1 µM | < 0.1 µM | –
CCN1CCN(C(=O)Cn2c(-c3ccc(OC)cc3)c(C3CCCCC3)c3sc(C(=O)O)cc32)CC1 [Example 26, 6-cyclohexyl-4-(4-ethylpiperazin-1-yl)carbonylmethyl-5-(4-methoxyphenyl)-4H-thieno[3,2-b]pyrrole-2-carboxylic acid] | < 0.1 µM | 0.1 to 1 µM | –
CN(C)CC(=O)N(C)c1ccc(N2CCOCC2)c(COc2ccc(-c3c(C4CCCCC4)c4sc(C(=O)O)cc4n3C)cc2)c1 [Example 43, 6-cyclohexyl-5-(4-{5-[N-(2-dimethylaminoacetyl)-N-methylamino]-2-morpholinobenzyloxy}phenyl)-4-methyl-4H-thieno[3,2-b]pyrrole-2-carboxylic acid dihydrochloride] | < 0.1 µM | – | < 0.1 µM
CN(C)C(=O)Cn1c(-c2ccc(OCc3ccccc3N3CCOCC3)cc2)c(C2CCCCC2)c2sc(C(=O)O)cc21 [Example 38, 6-cyclohexyl-4-dimethylcarbamoylmethyl-5-[4-(2-morpholinobenzyloxy)phenyl]-4H-thieno[3,2-b]pyrrole-2-carboxylic acid] | < 0.1 µM | < 0.1 µM | –
CC(C(=O)N(C)c1ccc(N2CCOCC2)cc1)n1c(-c2ccc(OCc3ccccc3)cc2)c(C2CCCCC2)c2sc(C(=O)O)cc21 (stereo not shown) [Example 60, 5-(4-benzyloxyphenyl)-6-cyclohexyl-4-{1-[N-methyl-N-(4-morpholinophenyl)carbamoyl]ethyl}-4H-thieno[3,2-b]pyrrole-2-carboxylic acid hydrochloride] | 0.1 to 1 µM | – | –
Cn1c(-c2ccc(OCc3cc(N4CCCC4=O)ccc3N3CCOCC3)cc2)c(C2CCCCC2)c2sc(C(=O)O)cc21 [Example 15, 6-cyclohexyl-4-methyl-5-{4-[2-morpholino-5-(2-oxopyrrolidin-1-yl)benzyloxy]phenyl}-4H-thieno[3,2-b]pyrrole-2-carboxylic acid hydrochloride] | < 0.1 µM | < 0.1 µM | –
Cn1c(-c2ccc(OCc3cc(NC(=O)CN4CCOCC4)ccc3N3CCOCC3)cc2)c(C2CCCCC2)c2sc(C(=O)O)cc21 [Example 41, 6-cyclohexyl-4-methyl-5-{4-[2-morpholino-5-(2-morpholinoacetylamino)benzyloxy]phenyl}-4H-thieno[3,2-b]pyrrole-2-carboxylic acid dihydrochloride] | < 0.1 µM | – | < 0.1 µM
CC(C)C(=O)Nc1ccc(N2CCOCC2)c(COc2ccc(-c3c(C4CCCCC4)c4sc(C(=O)O)cc4n3C)cc2)c1 [Example 29, 6-cyclohexyl-5-[4-(5-isobutyrylamino-2-morpholinobenzyloxy)phenyl]-4-methyl-4H-thieno[3,2-b]pyrrole-2-carboxylic acid hydrochloride] | < 0.1 µM | < 0.1 µM | –
O=C(O)c1cc2c(s1)c(C1CCCCC1)c(-c1ccc(OCc3ccccc3)cc1)n2CC1CCCCC1 [Example 48, 5-(4-benzyloxyphenyl)-6-cyclohexyl-4-cyclohexylmethyl-4H-thieno[3,2-b]pyrrole-2-carboxylic acid] | 0.1 to 1 µM | 0.1 to 1 µM | –
Cn1c(-c2ccc(OCc3ccccc3N3CCOCC3)cc2)c(C2CCCCC2)c2sc(C(=O)O)cc21 [Example 31, 6-cyclohexyl-4-methyl-5-[4-(2-morpholinobenzyloxy)phenyl]-4H-thieno[3,2-b]pyrrole-2-carboxylic acid hydrochloride] | < 0.1 µM | < 0.1 µM | –
CN(C)CC(=O)Nc1ccc(N2CCOCC2)c(COc2ccc(-c3c(C4CCCCC4)c4sc(C(=O)O)cc4n3C)cc2)c1 [Example 40, 6-cyclohexyl-5-{4-[5-(2-dimethylaminoacetylamino)-2-morpholinobenzyloxy]phenyl}-4-methyl-4H-thieno[3,2-b]pyrrole-2-carboxylic acid dihydrochloride] | < 0.1 µM | – | < 0.1 µM
COc1ccc(-c2c(C3CCCCC3)c3sc(C(=O)O)cc3n2CC(=O)NCc2ccccc2)cc1 [Example 32, 4-(benzylcarbamoylmethyl)-6-cyclohexyl-5-(4-methoxyphenyl)-4H-thieno[3,2-b]pyrrole-2-carboxylic acid] | < 0.1 µM | < 0.1 µM | –
CN(C)C(=O)Cn1c(-c2ccc(Oc3ccccc3)cc2)c(C2CCCCC2)c2sc(C(=O)O)cc21 [Example 42, 6-cyclohexyl-4-dimethylcarbamoylmethyl-5-(4-phenoxyphenyl)-4H-thieno[3,2-b]pyrrole-2-carboxylic acid] | < 0.1 µM | < 0.1 µM | –
CCOC(=O)c1cc2c(s1)c(C1CCCCC1)c(-c1ccc(OCc3cc(N4CCCC4=O)ccc3N3CCOCC3)cc1)n2C [Example 24, ethyl 6-cyclohexyl-4-methyl-5-{4-[2-morpholino-5-(2-oxopyrrolidin-1-yl)benzyloxy]phenyl}-4H-thieno[3,2-b]pyrrole-2-carboxylate hydrochloride] | 0.1 to 1 µM | 0.1 to 1 µM | –
Cn1c(-c2ccc(OCc3ccc(N4CCCC4=O)cc3N3CCOCC3)cc2)c(C2CCCCC2)c2sc(C(=O)O)cc21 [Example 34, 6-cyclohexyl-4-methyl-5-{4-[2-morpholino-4-(2-oxopyrrolidin-1-yl)benzyloxy]phenyl}-4H-thieno[3,2-b]pyrrole-2-carboxylic acid hydrochloride] | < 0.1 µM | < 0.1 µM | –
O=C(O)c1cc2c(s1)c(C1CCCCC1)c(-c1ccc(OCc3ccccc3)cc1)n2CCN1CCC(N2CCCCC2)CC1 [Example 55, 5-(4-benzyloxyphenyl)-4-[2-(1,4′-bipiperidinyl-1′-yl)ethyl]-6-cyclohexyl-4H-thieno[3,2-b]pyrrole-2-carboxylic acid dihydrochloride] | 0.1 to 1 µM | 0.1 to 1 µM | –
